TGI and GI50 data for eight compounds are collected here from PubChem BioAssay (NCI).

For orientation: TGI means the concentration giving total growth inhibition. Low values mean greater sensitivity of the cells, high ones lower sensitivity of the cells. Broadly, the GI50 is the concentration at which growth is held to half of that of the control.

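A five-concentration, 48-hour dose response in 96-well plates underlies each endpoint, interpolated linearly between surrounding concentrations. GI50 = concentration required for 50% inhibition of growth. At the TGI there is no net growth.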

Common to all, as to experiment: DTP human tumour cell line panel, 48 h
In assay [1] the test system is K-562 leukemia.
For assay [2], the system named is SN12C renal.
Assay [3] has as its system HOP-62 NSCLC.
Assay [4] has as its system ACHN renal.
Assay [5] has as its system RPMI-8226 leukemia.
Assay [6] relates to OVCAR-3 ovarian.
For assay [7], the system named is PC-3 prostate.
The test system of assay [8] is UO-31 renal.
For assay [9], the system named is RXF 393 renal.
The subject of assay [10] is UACC-257 melanoma.

With `CCOc1cc(CCNC)c2c(ccc3ccc(OC)c(O)c32)c1OC`, the TGI in [1] is greater than 100 µM; in [2], 36.7 µM; in assay [3] it was 37 µM; in assay [4], 26.5 µM; in assay [5] it was greater than 100 µM; in [6], 29.8 µM. For the same compound, the TGI stood at 27.6 µM in [7], 29.6 µM in assay [8], 31.5 µM in assay [9] and 29.6 µM in assay [10].
For `N#Cc1cc2c(=S)[nH]c(=S)[nH]c2nc1SCc1ccccc1`, the GI50 was 36.9 µM in assay [1]; 22.7 µM in [2]; 63.2 µM in [3]; 27.4 µM in [4]; 26.4 µM in [5]; 65.5 µM in [6]. The GI50 in assay [7] is 23.6 µM; in assay [8] it was 44.8 µM; in [9], 31.8 µM; in assay [10] it was 47.4 µM. Further, the TGI in assay [1], in [2], in assay [3], in [4], in assay [5] and in assay [6] was greater than 100 µM throughout. The TGI in [7], in assay [8], in [9] and in [10] was greater than 100 µM in each case.
In the case of `Nc1ncc(-c2ccc3ncnc(N4CCc5cc(F)c(Cl)cc54)c3c2)cc1C(F)(F)F`, the GI50 was 1.61 µM in assay [1]; 0.754 µM in assay [2]; 3.18 µM in [3]; 0.784 µM in assay [4]; 2.33 µM in assay [5]; 1.39 µM in assay [6]. Also, the GI50 was 1.44 µM in assay [7], 0.33 µM in [8], 0.274 µM in assay [9] and 2.08 µM in [10]. The total growth inhibition concentration (TGI) in assay [1], in [2], in assay [3], in [4], in [5] and in [6] was greater than 100 µM throughout. Further, the TGI in assay [7] is greater than 100 µM; in assay [8], greater than 100 µM; in assay [9], 1.53 µM; in [10] it was greater than 100 µM.
For `CCN(CC)CCC(CNc1c(C)cnc2cc(Cl)ccc12)c1ccc(Cl)c(Cl)c1` (stereo not given), the GI50 is 1.2 µM in [1]; 7.67 µM in assay [2]; 4.69 µM in assay [3]; 4.51 µM in assay [4]; 2.15 µM in assay [5]; 6.81 µM in [6]. Besides, the GI50 in assay [7] is 4.1 µM; in assay [8] it was 2.59 µM; in [9], 2.86 µM; in assay [10], 2.08 µM. Besides, the TGI came to 3.51 µM in assay [1]; 23.7 µM in assay [2]; 17.6 µM in assay [3]; 17.5 µM in assay [4]; 6.49 µM in [5]; 21.1 µM in [6]. Besides, the TGI in assay [7] came to 16.2 µM; in [8], 13.9 µM; in assay [9], 11.4 µM; in assay [10], 3.93 µM.
On to `COc1ccc2c3c1OC1C4(CCC5C(C2)N(CC2CC2)CCC351)OCCO4` (stereo not given), for which the TGI in assay [1], in [2], in assay [3], in assay [4], in assay [5] and in assay [6] was greater than 100 µM each time. Further, the concentration for total growth inhibition (TGI) in [7], in assay [8], in [9] and in assay [10] was greater than 100 µM throughout.
Turning to `COC(=O)[C@]12CC[C@@H](C)[C@H](C)[C@@H]1C1=CC[C@@H]3[C@@]4(C)C(C=O)=C[C@@](C)(COC(=O)c5ccco5)C4=CC[C@@]3(C)[C@]1(C)CC2`, the GI50 in [1] is 3.7 µM; in assay [2], 4.04 µM; in assay [3] it was 3.4 µM; in assay [4], 0.118 µM; in assay [5] it was 1.49 µM; in assay [6] it was 2.17 µM. The GI50 is 2.97 µM in assay [7], 1.92 µM in assay [8], 1.7 µM in assay [9] and 0.108 µM in assay [10]. Moreover, the TGI was 17.3 µM in assay [1]; greater than 100 µM in assay [2]; 13.6 µM in [3]; 2.56 µM in assay [4]; 5.01 µM in [5]; 4.76 µM in [6]. The TGI was greater than 100 µM in assay [7], 5.03 µM in assay [8], 3.77 µM in assay [9] and 0.65 µM in [10].
On to `Fc1cccc(-c2nc(-c3c[nH]c4ncccc34)cs2)c1`, for which the GI50 is greater than 100 µM in [1]; greater than 100 µM in assay [2]; 25.7 µM in [3]; 9.68 µM in assay [4]; greater than 100 µM in assay [5]; 60.5 µM in assay [6]. Moreover, the GI50 in assay [7] is greater than 100 µM; in [8], 33.4 µM; in [9], 23.1 µM; in assay [10] it was greater than 100 µM. Further, the TGI in assay [1], in [2], in assay [3], in [4], in [5] and in assay [6] was greater than 100 µM each time. The TGI in [7] was greater than 100 µM; in [8] it was greater than 100 µM; in [9] it was 90.8 µM; in [10], greater than 100 µM.
Take `NC1=C(/C(N)=N/O)C(c2ccccc2)c2ccc3ccccc3c2O1` (stereo not given): the GI50 in assay [1] is 0.145 µM; in [2], 0.603 µM; in assay [3] it was 0.524 µM; in [4], 0.458 µM; in assay [5], 0.38 µM; in assay [6], 0.225 µM. For the same compound, the GI50 is 0.291 µM in assay [7], 0.348 µM in assay [8], 0.249 µM in assay [9] and 25.1 µM in assay [10]. Besides, the TGI was greater than 100 µM in [1]; 31 µM in [2]; greater than 100 µM in [3]; 51.1 µM in [4]; 28.9 µM in assay [5]; 0.675 µM in [6]. Moreover, the concentration for total growth inhibition (TGI) is greater than 100 µM in [7], greater than 84.3 µM in assay [8], 0.929 µM in assay [9] and greater than 100 µM in [10].
